Measured values taken from ChEMBL document CHEMBL5726336, “Arylquinazolines” (2017).

Target: DNA-dependent protein kinase catalytic subunit (Homo sapiens, UniProt P78527)
Experiment: Biochemical Assay: The kinase assay was carried out in streptavidin-coated […] microtitre flashplates. […] The reaction was stopped using 50 ul/well of 200 mM EDTA. After incubation for a further 30 min at room temperature, the liquid was removed. Each well was washed three times with 100 ul of 0.9% saline solution. A nonspecific reaction (blank value) was determined using 10 uM of an innate kinase inhibitor. The radioactivity measurement was carried out using a TopCount. IC50 values were calculated in RS1.

Sequence of DNA-dependent protein kinase catalytic subunit (P78527 whole entry): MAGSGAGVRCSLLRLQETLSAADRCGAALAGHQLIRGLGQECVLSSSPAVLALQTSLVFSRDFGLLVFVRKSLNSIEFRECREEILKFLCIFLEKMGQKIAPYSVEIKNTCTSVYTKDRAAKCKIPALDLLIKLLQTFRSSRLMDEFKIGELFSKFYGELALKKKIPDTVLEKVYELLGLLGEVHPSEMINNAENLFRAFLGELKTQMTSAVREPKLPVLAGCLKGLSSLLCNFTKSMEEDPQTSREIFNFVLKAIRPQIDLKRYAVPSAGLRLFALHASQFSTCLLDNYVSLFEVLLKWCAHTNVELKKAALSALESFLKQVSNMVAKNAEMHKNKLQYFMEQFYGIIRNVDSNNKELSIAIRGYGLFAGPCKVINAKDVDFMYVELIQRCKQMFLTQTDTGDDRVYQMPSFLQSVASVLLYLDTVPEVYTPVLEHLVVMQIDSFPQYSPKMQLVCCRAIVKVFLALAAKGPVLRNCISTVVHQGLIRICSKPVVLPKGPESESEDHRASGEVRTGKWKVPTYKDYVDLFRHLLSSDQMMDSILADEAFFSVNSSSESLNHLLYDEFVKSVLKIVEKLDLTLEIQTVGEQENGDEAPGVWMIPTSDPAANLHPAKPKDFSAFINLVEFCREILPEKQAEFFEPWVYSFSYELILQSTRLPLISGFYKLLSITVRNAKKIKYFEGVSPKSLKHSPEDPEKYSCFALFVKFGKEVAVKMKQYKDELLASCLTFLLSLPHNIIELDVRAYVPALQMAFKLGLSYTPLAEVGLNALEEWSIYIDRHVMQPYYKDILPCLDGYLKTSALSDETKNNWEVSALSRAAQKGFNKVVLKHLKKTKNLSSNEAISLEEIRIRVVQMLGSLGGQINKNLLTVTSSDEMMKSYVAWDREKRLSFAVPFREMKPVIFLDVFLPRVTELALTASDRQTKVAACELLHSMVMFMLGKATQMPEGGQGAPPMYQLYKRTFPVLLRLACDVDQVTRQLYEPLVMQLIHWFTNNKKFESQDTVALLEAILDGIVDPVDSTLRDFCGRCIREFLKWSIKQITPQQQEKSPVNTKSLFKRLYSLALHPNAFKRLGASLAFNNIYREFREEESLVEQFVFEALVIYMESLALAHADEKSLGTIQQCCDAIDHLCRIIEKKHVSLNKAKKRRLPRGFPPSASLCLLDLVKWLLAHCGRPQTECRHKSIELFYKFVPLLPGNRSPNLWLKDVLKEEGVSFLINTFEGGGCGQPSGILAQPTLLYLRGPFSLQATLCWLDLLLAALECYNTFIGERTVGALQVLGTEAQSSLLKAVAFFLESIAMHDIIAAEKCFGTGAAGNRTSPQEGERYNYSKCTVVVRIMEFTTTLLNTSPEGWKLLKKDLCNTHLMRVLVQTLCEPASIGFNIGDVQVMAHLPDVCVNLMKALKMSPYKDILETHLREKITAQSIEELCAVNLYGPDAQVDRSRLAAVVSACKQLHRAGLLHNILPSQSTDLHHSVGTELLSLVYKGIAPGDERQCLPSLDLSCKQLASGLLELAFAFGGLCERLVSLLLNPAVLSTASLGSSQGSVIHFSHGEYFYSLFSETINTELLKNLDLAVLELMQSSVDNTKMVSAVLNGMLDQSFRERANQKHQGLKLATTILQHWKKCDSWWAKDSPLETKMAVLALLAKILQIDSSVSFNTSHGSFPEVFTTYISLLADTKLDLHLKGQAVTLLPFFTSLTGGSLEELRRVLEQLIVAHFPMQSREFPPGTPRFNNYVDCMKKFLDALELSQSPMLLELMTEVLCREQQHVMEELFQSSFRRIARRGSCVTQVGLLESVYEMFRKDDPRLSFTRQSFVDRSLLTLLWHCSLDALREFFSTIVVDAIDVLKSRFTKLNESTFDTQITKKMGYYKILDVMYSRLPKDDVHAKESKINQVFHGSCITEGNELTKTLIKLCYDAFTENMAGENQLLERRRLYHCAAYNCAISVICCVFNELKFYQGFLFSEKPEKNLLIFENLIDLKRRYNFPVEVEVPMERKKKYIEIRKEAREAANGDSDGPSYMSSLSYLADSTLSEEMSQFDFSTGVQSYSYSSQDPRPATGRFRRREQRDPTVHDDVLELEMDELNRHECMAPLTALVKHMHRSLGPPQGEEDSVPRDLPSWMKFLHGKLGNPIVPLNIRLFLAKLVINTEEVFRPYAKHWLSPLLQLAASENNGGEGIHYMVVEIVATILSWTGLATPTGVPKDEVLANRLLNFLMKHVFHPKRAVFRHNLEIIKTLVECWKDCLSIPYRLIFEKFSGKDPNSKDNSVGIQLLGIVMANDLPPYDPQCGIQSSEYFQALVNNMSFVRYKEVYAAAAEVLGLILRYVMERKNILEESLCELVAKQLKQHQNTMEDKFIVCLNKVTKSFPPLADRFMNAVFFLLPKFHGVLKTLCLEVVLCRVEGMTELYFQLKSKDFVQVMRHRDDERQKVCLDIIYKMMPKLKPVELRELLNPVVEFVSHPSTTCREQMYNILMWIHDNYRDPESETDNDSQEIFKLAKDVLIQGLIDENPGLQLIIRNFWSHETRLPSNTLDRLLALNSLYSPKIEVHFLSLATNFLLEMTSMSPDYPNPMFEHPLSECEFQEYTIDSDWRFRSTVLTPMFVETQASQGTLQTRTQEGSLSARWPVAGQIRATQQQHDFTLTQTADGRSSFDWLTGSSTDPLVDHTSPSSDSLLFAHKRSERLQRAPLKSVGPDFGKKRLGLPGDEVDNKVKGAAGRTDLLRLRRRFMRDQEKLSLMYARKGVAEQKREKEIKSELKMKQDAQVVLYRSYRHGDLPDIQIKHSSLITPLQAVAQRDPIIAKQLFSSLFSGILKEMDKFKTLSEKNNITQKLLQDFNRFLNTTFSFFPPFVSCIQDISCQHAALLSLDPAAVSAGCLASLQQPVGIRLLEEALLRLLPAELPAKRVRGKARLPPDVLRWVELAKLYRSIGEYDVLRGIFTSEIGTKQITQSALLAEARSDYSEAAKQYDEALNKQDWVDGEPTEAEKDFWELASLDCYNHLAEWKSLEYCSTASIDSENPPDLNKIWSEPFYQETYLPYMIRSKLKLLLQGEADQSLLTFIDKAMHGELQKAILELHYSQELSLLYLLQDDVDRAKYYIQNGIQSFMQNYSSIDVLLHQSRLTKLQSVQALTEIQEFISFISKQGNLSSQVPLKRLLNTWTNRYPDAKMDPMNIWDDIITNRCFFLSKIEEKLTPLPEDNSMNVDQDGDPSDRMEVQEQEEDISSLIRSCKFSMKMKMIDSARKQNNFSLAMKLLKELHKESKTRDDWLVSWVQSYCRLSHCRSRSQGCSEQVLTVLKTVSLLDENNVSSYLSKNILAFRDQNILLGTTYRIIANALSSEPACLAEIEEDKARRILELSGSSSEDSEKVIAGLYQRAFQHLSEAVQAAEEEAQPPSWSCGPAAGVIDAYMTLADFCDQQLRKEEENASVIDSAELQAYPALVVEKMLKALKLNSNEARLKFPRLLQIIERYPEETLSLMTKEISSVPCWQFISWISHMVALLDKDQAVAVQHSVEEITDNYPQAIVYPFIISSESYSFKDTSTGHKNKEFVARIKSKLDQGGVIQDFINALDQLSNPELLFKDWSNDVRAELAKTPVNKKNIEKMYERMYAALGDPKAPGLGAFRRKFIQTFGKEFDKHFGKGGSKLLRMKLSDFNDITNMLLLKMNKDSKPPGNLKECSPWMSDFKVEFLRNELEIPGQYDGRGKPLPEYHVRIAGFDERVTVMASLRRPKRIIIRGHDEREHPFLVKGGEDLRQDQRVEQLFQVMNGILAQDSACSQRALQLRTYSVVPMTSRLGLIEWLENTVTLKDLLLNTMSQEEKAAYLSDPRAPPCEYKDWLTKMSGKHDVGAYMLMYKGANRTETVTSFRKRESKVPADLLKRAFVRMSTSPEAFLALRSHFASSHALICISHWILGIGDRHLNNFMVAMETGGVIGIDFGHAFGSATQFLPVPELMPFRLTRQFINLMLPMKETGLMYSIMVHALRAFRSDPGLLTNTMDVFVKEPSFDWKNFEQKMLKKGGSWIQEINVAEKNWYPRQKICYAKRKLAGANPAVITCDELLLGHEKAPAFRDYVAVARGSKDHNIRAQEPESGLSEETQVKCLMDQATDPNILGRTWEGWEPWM

CCNCc1csc(C(O)c2cc(-c3ncnc4cc(N5CCOCC5)ccc34)c(F)cc2Cl)n1 (stereo unspecified)
IC50: 7 to 30 nM
